Like-named read-outs stand apart in the source and are kept apart here.
Columns and labels:
[1] = test system: Human promyelocytic leukemia HL-60 cells; experiment: Cell differentiation of HL-60 cells, nitroblue tetrazolium (NBT) reduction; type: cell-based; details: for EC50: Homo sapiens; for NBT (+) %: HL-60
Protocol: Human promyelocytic leukemia HL-60 cells were cultured in RPMI-1640 medium supplemented by 10% heat-inactivated calf serum and 100 U/ml of penicillin plus 100 μg/ml of streptomycin. The flasks containing cells and medium were incubated in an incubator with 5% CO2 at 37° C. Log phase cells were seeded into the medium at a concentration of 1.2×10^5to 1.4×10^5 cells per ml and cultured in flasks containing 5 ml of medium. Each group consisted of three flasks. Different concentrations of coumarin-retinoids were added. At intervals following the addition of coumarin-retinoids to the cultures, a small portion of cells was removed and live cells were counted under a light microscope using a dye-exclusionmethod with trypan blue. Cell differentiation was judged in terms of morphology and nitroblue tetrazolium (NBT) reduction.
For a determination of NBT reducing activity, a portion of the coumarin-retinoid-treated cells was removed at intervals following treatment and centrifuged. After centrifugation, 0.5 ml of 0.1% NBT (containing 100 ng TPA) was added to each tube. The contents of the test tubes were then incubated for 1 hour at 37° C. Cell smears were prepared from the cell sediment and stained using the Wright-Giemsa technique. For each smear prepared, 200 cells were isolated for examination under a light microscope with an oil immersion lens. Cells stained with blue-black granules were considered NBT-positive cells. The 50% differentiation or effective concentration (ED50 or EC50) is shown in terms of molar (M) concentration of the […] tested.
(§1) The protocols of Examples 14 and 21 were used, for the NBT and MTT assays, respectively.

[2] = test system: HL-60 cells; experiment: MTT assay in HL-60 cells; type: cell-based, human; details: for inhibition at 10 µM: 10^-5 M; for inhibition at 10 µM / inhibition at 1 µM / inhibition at 0.1 µM / inhibition at 0.01 µM: HL-60; for inhibition at 1 µM: 10^-6 M; for inhibition at 0.1 µM: 10^-7 M; for inhibition at 0.01 µM: 10^-8 M
Protocol: Human cancer cell lines (KB, A2780, MCF-7, HL-60, A549) were used. For a monolayer culture, 0.5 ml of trypsin solution ([…]) was added to the flasks for digestion. Microtiter plates (96 well) were used for the cell culture and 200 μl of cell suspension (1200 tumor cells) were placed in each well and incubated at 37° C. for 24 hours. Following the addition of the test compound, the control and treated flasks were placed in a CO2 incubator for 5 day culture. For the MTT assay, 200 μl of MTT solution (5 mg in 10 ml of phosphate buffer) plus the medium were added and incubated for another 4 hours. Following incubation, the supernatant was discarded and 200 μl of DMSO was added to each well. With a mild agitation the OD values were determined by the MR 700 Elisa at 570 nm (reference wavelength was 450 nm). The ED50 of the compound and tumor cell survival rate [formula] as percent inhibition were calculated.
as §1

[3] = test system: bone abnormalities in mouse fetus; experiment: Bone abnormalities in mouse fetus (anti-teratogenicity); type: in vivo
Protocol: Female mice were examined by vaginal smear the morning after being caged with male mice, and if sperm or a vaginal plug was discovered, then the mice were determined to be pregnant. The retinoids were administered at the dosage indicated starting on the seventh day of pregnancy and continued once a day for the next ten days. On the 20th day after the female mice were determined to be pregnant, they were sacrificed by cervical dislocation. Both sides of the uterus were checked and the number of living embryos, dead embryos, and absorbed embryos were counted. The living embryos were further examined for bone abnormalities.
After the embryos became transparent, they were dissected and their skeletons were checked by observation under a microscope.

[4] = NBT reduction, 50% differentiation, HL-60 (Table 2), read-out: EC50
[5] = Homo sapiens, 120 h, MTT, HL-60 (Table 12), read-out: ED50 (the source's name)
[6] = Homo sapiens, 120 h, HL-60 (Table 15), read-out: MTT ED50
[7] = HL-60 (Table 15), read-out: NBT ED50

CCOC(=O)c1cc(OC(=O)/C=C(C)/C=C/C=C(C)/C=C/C2=C(C)CCCC2(C)C)cc2oc(=O)c(C(C)=O)cc12 [Compound I-11, 3-acetyl-5-ethoxycarbyl-7-retinoyloxy-coumarin]
EC50 [1, 4]: 3000 nM

CC(=O)c1cc2c(COC(=O)/C=C(C)/C=C/C=C(C)/C=C/C3=C(C)CCCC3(C)C)cc(OC(=O)/C=C(C)/C=C/C=C(C)/C=C/C3=C(C)CCCC3(C)C)cc2oc1=O [Compound I-7]
EC50 [1, 4]: 750 nM

CCOC(=O)c1cc2c(OC(=O)/C=C(C)/C=C/C=C(C)/C=C/C3=C(C)CCCC3(C)C)cc(OC(=O)/C=C(C)/C=C/C=C(C)/C=C/C3=C(C)CCCC3(C)C)cc2oc1=O [Compound I-21]
IC50 [2, 5]: 1000 nM | inhibition at 10 µM ([2]; Homo sapiens, MTT): 61.2 ± 2.4% | inhibition at 1 µM ([2]; Homo sapiens, MTT): 49.9 ± 2.5% | inhibition at 0.1 µM ([2]; Homo sapiens, MTT): 32.5 ± 1.1% | inhibition at 0.01 µM ([2]; Homo sapiens, MTT): 21.8 ± 3.1% | EC50 [1, 4]: 250 nM

CC1=C(/C=C/C(C)=C/C=C/C(C)=C/C(=O)Oc2cc(=O)oc3ccc(C(C)(C)C)cc23)C(C)(C)CCC1 [Compound I-28, 4-retinoyloxy-6-t-butyl-coumarin]
IC50 [2, 6]: > 10000 nM

CC(=O)c1cc2ccc(OC(=O)/C=C(C)/C=C/C=C(C)/C=C/C3=C(C)CCCC3(C)C)c(C)c2oc1=O [Compound I-3]
EC50 [1, 4]: 800 nM

CC1=C(/C=C/C(C)=C/C=C/C(C)=C/C(=O)Oc2ccc3c(C)cc(=O)oc3c2C)C(C)(C)CCC1 [Compound I-30]
IC50 [2, 6]: > 10000 nM

CC1=C(/C=C/C(C)=C/C=C/C(C)=C/C(=O)Oc2ccc3c(C)cc(=O)oc3c2)C(C)(C)CCC1 [Compound I-32, 4-methyl-7-retinoyloxy-coumarin]
IC50 ([2]; HL-60 (Table 15), 7200 min, read-out: MTT ED50): 11000 nM

CCOC(=O)c1cc2cc(Cl)c(OC(=O)/C=C(C)/C=C/C=C(C)/C=C/C3=C(C)CCCC3(C)C)cc2oc1=O [Compound I-18]
EC50 [1, 4]: 10000 nM

CC1=C(/C=C/C(C)=C/C=C/C(C)=C/C(=O)Oc2cc(=O)oc3c(C)cccc23)C(C)(C)CCC1 [Compound I-29]
IC50 [2, 6]: 1900 nM | EC50 [1, 7]: > 10000 nM

CCCCCCCCCCCCOC(=O)c1cc(OC(=O)/C=C(C)/C=C/C=C(C)/C=C/C2=C(C)CCCC2(C)C)c(OC(=O)/C=C(C)/C=C/C=C(C)/C=C/C2=C(C)CCCC2(C)C)c2oc(=O)c(C(=O)OCC)cc12 [Compound I-12]
EC50 [1, 4]: 10 nM

CCOC(=O)c1cc2ccc(OC(=O)/C=C(C)/C=C/C=C(C)/C=C/C3=C(C)CCCC3(C)C)c(C)c2oc1=O [Compound I-15]
IC50 [2, 5]: 900 nM | inhibition at 10 µM ([2]; Homo sapiens, MTT): 54.5 ± 2.8% | inhibition at 1 µM ([2]; Homo sapiens, MTT): 48.8 ± 1.3% | inhibition at 0.1 µM ([2]; Homo sapiens, MTT): 34.6% | inhibition at 0.01 µM ([2]; Homo sapiens, MTT): 16.2 ± 2.4% | EC50 [1, 4]: 260 nM

CC(=O)c1cc2c(C)cc(OC(=O)/C=C(C)/C=C/C=C(C)/C=C/C3=C(C)CCCC3(C)C)cc2oc1=O [Compound I-2]
NBT (+) % ([1]; 10^-5 M): 38% | EC50 [1, 4]: 2000 nM

CCCCCCc1cc2c(C)cc(=O)oc2cc1OC(=O)/C=C(C)/C=C/C=C(C)/C=C/C1=C(C)CCCC1(C)C [Compound I-34, 4-methyl-6-hexyl-7-retinoyloxy-coumar in]
IC50 [2, 6]: > 10000 nM

CC1=C(/C=C/C(C)=C/C=C/C(C)=C/C(=O)Oc2cc(=O)oc3ccc(C)cc23)C(C)(C)CCC1 [Compound I-35, 4-retinoyloxy-6-methyl-coumarin]
IC50 [2, 6]: 2600 nM | EC50 [1, 7]: 6700 nM

CC1=C(/C=C/C(C)=C/C=C/C(C)=C/C(=O)Oc2cc3oc(=O)c(C(N)=O)cc3cc2Cl)C(C)(C)CCC1 [Compound I-27]
EC50 [1, 4]: 550 nM

CCOC(=O)c1cc2c(C(=O)O)cc(OC(=O)/C=C(C)/C=C/C=C(C)/C=C/C3=C(C)CCCC3(C)C)cc2oc1=O [Compound I-19]
NBT (+) % ([1]; 10^-4 M): 84% | NBT (+) % ([1]; 10^-5 M): 5% | NBT (+) % ([1]; 10^-7 M): 92% | EC50 [1, 4]: 9000 nM

CCOC(=O)c1cc2ccc(OC(=O)/C=C(C)/C=C/C=C(C)/C=C/C3=C(C)CCCC3(C)C)cc2oc1=O [Compound I-17]
EC50 [1, 4]: 1000 nM

CCCCCCc1cc2cc(C(C)=O)c(=O)oc2c(C)c1OC(=O)/C=C(C)/C=C/C=C(C)/C=C/C1=C(C)CCCC1(C)C [Compound I-14]
IC50 [2, 5]: 9000 nM | inhibition at 10 µM ([2]; Homo sapiens, MTT): 52.6 ± 1.3% | inhibition at 1 µM ([2]; Homo sapiens, MTT): 30 ± 1.4% | inhibition at 0.1 µM ([2]; Homo sapiens, MTT): 10.4 ± 2.4%

CCc1cc2c(C)cc(=O)oc2cc1OC(=O)/C=C(C)/C=C/C=C(C)/C=C/C1=C(C)CCCC1(C)C [Compound I-31, 4-methyl-6-ethyl-7-retinoyloxy-coumarin]
IC50 [2, 6]: > 10000 nM

CC(=O)c1cc2c(C(=O)O)cc(OC(=O)/C=C(C)/C=C/C=C(C)/C=C/C3=C(C)CCCC3(C)C)cc2oc1=O [Compound I-4, 3-acetyl-5-carboxy-7-retinoyloxy coumarin]
EC50 [1, 4]: 70 nM

CC1=C(/C=C/C(C)=C/C=C/C(C)=C/C(=O)Oc2cc(C(=O)O)c3cc(C(N)=O)c(=O)oc3c2)C(C)(C)CCC1 [Compound I-26]
IC50 [2, 5]: 900 nM | inhibition at 10 µM ([2]; Homo sapiens, MTT): 68.7 ± 0.2% | inhibition at 1 µM ([2]; Homo sapiens, MTT): 52.6 ± 0.5% | inhibition at 0.1 µM ([2]; Homo sapiens, MTT): 43.8 ± 1.3% | inhibition at 0.01 µM ([2]; Homo sapiens, MTT): 9.4 ± 3.7% | EC50 [1, 4]: 80 nM

CC(=O)c1cc2c(OC(=O)/C=C(C)/C=C/C=C(C)/C=C/C3=C(C)CCCC3(C)C)c(C(=O)O)ccc2oc1=O [Compound I-8]
IC50 [2, 5]: 100 nM | inhibition at 10 µM ([2]; Homo sapiens, MTT): 63.9 ± 2.9% | inhibition at 1 µM ([2]; Homo sapiens, MTT): 54 ± 1.9% | inhibition at 0.1 µM ([2]; Homo sapiens, MTT): 50.5 ± 0.9% | inhibition at 0.01 µM ([2]; Homo sapiens, MTT): 29.7 ± 1.4% | EC50 [1, 4]: 59 nM

CC1=C(/C=C/C(C)=C/C=C/C(C)=C/C(=O)Oc2cc(OC(=O)/C=C(C)/C=C/C=C(C)/C=C/C3=C(C)CCCC3(C)C)c3c(C)cc(=O)oc3c2)C(C)(C)CCC1 [Compound I-33, 4-methyl-5,7-diretinoyloxy-coumarin]
IC50 [2, 6]: 3200 nM | EC50 [1, 7]: > 10000 nM

CC(=O)c1cc2ccc(OC(=O)/C=C(C)/C=C/C=C(C)/C=C/C3=C(C)CCCC3(C)C)c(OC(=O)/C=C(C)/C=C/C=C(C)/C=C/C3=C(C)CCCC3(C)C)c2oc1=O [Compound I-9]
IC50 [2, 5]: 950 nM | inhibition at 10 µM ([2]; Homo sapiens, MTT): 61.5 ± 1.9% | inhibition at 1 µM ([2]; Homo sapiens, MTT): 50.6 ± 0.5% | inhibition at 0.1 µM ([2]; Homo sapiens, MTT): 48.8 ± 0.5% | inhibition at 0.01 µM ([2]; Homo sapiens, MTT): 28 ± 5.2% | EC50 [1, 4]: 65 nM | Delayed Calcification, Occipital delay/fetus ([3]; 20 mg/kg): 0/75 | Delayed Calcification, Sternum delay/fetus ([3]; 20 mg/kg): 0/75 | Delayed Calcification, Occipital delay/fetus ([3]; 40 mg/kg): 3/77 | Delayed Calcification, Sternum delay/fetus ([3]; 40 mg/kg): 2/77

CCc1cc2cc(C(C)=O)c(=O)oc2cc1OC(=O)/C=C(C)/C=C/C=C(C)/C=C/C1=C(C)CCCC1(C)C [Compound I-13]
IC50 [2, 5]: > 10000 nM | inhibition at 10 µM ([2]; Homo sapiens, MTT): 5.5 ± 3.9% | inhibition at 1 µM ([2]; Homo sapiens, MTT): 4.3 ± 6.1% | inhibition at 0.1 µM ([2]; Homo sapiens, MTT): 3.5 ± 3.9%

CC1=C(/C=C/C(C)=C/C=C/C(C)=C/C(=O)Oc2ccc3c(C)cc(=O)oc3c2OC(=O)/C=C(C)/C=C/C=C(C)/C=C/C2=C(C)CCCC2(C)C)C(C)(C)CCC1 [Compound I-36, 4-methyl-7,8-diretinoyloxy-coumarin]
IC50 [2, 6]: 3200 nM | EC50 [1, 7]: > 10000 nM
